Experimental data: the supplement of paper PMC10307832

Key:
Assay in all cases: relative viability (nuclei count vs DMSO), 5 days (fraction); higher = more cells survive
Entinostat + Foretinib = compound: Nc1ccccc1NC(=O)c1ccc(CNC(=O)OCc2cccnc2)cc1 [Entinostat] + COc1cc2c(Oc3ccc(NC(=O)C4(C(=O)Nc5ccc(F)cc5)CC4)cc3F)ccnc2cc1OCCCN1CCOCC1 [Foretinib] (partner 0.25 µM)
Method in brief: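 The day after seeding in 1536-well plates, lung cancer cell lines were treated by pin tool with a single drug, or with a fixed anchor-drug dose together with five library-drug doses (not always all listed) in √10 steps. After 5 days, a combined fix-and-stain solution (final 0.05% Triton X-100, 1% formaldehyde, 1 ug/ml Hoechst) was added. Nuclei counted on 4× images gave relative viability as treated counts over vehicle counts, reported as the median of duplicate plates.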

SGI-1776 = compound: CN1CCC(CNc2ccc3ncc(-c4cccc(OC(F)(F)F)c4)n3n2)CC1 [SGI-1776]
Method in brief: (§1)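 Only plates meeting two conditions passed: control CV below 25% and at least one doubling. Lung cancer cell lines, kept overnight at 37 °C in 1536-well plates, were pinned with five library-drug doses (not always all listed) √10 apart on vehicle-anchored plates and grown 5 days without medium change. A one-step fix, permeabilisation and Hoechst stain preceded 4× imaging and MetaXpress nuclear counting. Viability equals treated-well nuclei divided by vehicle-well nuclei, as the median over plates.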

Entinostat = compound: Nc1ccccc1NC(=O)c1ccc(CNC(=O)OCc2cccnc2)cc1 [Entinostat]
Method in brief: as §1

[1] = compound: C1COCCN1C2=NC(=NC3=C2OC4=C3C=CC=N4)C5=CC(=CC=C5)NC(=O)C6=CN=C(C=C6)N
Method in brief: as §1

Cell Line	relative viability (Entinostat + Foretinib; first compound 0.02 µM)	relative viability (Entinostat + Foretinib; first compound 0.06325 µM)	relative viability (Entinostat + Foretinib; first compound 0.2 µM)	relative viability (Entinostat + Foretinib; first compound 0.6325 µM)	relative viability (Entinostat + Foretinib; first compound 2 µM)	relative viability (SGI-1776; 0.08 µM)	relative viability (SGI-1776; 0.8 µM)	relative viability (SGI-1776; 2.53 µM)	relative viability (SGI-1776; 8 µM)	relative viability (Entinostat; 0.02 µM)	relative viability (Entinostat; 0.06325 µM)	relative viability (Entinostat; 0.2 µM)	relative viability (Entinostat; 0.6325 µM)	relative viability (Entinostat; 2 µM)	relative viability ([1]; 0.02 µM)	relative viability ([1]; 0.06325 µM)	relative viability ([1]; 0.2 µM)	relative viability ([1]; 0.6325 µM)	relative viability ([1]; 2 µM)
NCI-H1651	0.817	0.855	0.851	0.632	0.394	1	0.999	0.971	0.929	1.02	0.971	1.02	0.908	0.692	0.994	0.994	0.978	0.951	0.8
NCI-H838	1.05	1.23	1.12	0.746	0.321	0.928	0.994	0.936	0.645	1.11	1.08	1.08	0.733	0.406	0.852	0.947	0.917	0.791	0.57
NCI-H2342	1.04	1.22	0.947	0.924	0.787	1.1	0.927	0.914	1.07	1.07	1.08	0.907	0.908	0.73	1	1.1	0.938	0.928	0.827
NCI-H1915	1.06	1.06	1.07	1	0.592	1.03	0.987	0.995	1	1.01	0.997	1.01	0.573	0.392	1.02	1.06	1	1.03	0.74
COR-L23	0.919	0.857	0.943	0.495	0.308	1.06	1.07	1.05	0.883	1	1.02	0.904	0.555	0.227	0.981	1.2	1.18	1.09	0.681
ChaGo-K-1	1.06	0.914	0.893	0.842	0.673	1.06	1.01	0.949	0.855	1.04	0.934	1.11	0.961	0.881	0.949	1.07	0.897	1.01	0.837
HOP-62	1.11	0.983	0.995	0.609	0.356	1.09	0.956	1.05	0.998	1.05	0.974	0.97	0.633	0.356	0.974	1.15	1.09	0.961	0.762
NCI-H1975	0.904	0.78	0.64	0.326	0.224	1.06	1	0.925	0.79	0.942	0.826	0.784	0.466	0.267	0.881	0.968	0.895	0.874	0.684
BEN	0.782	0.756	0.465	0.498	0.283	0.984	0.955	0.819	0.812	0.97	1.04	0.835	0.653	0.357	1.03	0.917	1.02	0.934	0.837
NCI-H1563	0.543	0.918	0.823	0.77	0.609	1	1.05	0.925	0.756	0.938	0.959	0.887	0.816	0.776	0.938	0.992	0.859	0.786	0.758
EMC-BAC-2	1.03	0.938	0.814	0.608	0.513	1.05	1.06	0.973	0.87	1.18	0.965	0.91	0.598	0.398	1.05	0.972	0.912	0.92	0.885
IA-LM	1.13	1.22	1.43	1.05	0.764	0.999	1.02	0.97	0.87	0.975	1.01	1.08	0.887	0.651	0.895	0.924	0.716	0.847	0.442
NCI-H650	1.16	0.933	1.04	0.839	0.477	0.935	0.955	0.997	0.677	1.15	1.02	0.939	0.941	0.308	0.958	0.875	0.918	0.952	0.849
NCI-H1299	1.07	1.07	1.01	0.855	0.879	1.03	1.01	0.996	0.946	1.03	1	0.994	0.85	0.727	0.991	1.1	1.03	1.02	0.868
LU99A	0.773	0.739	0.76	0.579	0.442	0.948	1.03	0.964	0.861	0.918	0.93	0.871	0.69	0.603	0.966	0.956	0.859	0.777	0.564
NCI-H2347	0.837	0.812	0.454	0.254	0.37	1.13	1.08	1.02	0.963	1.03	0.992	0.91	0.521	0.366	0.983	1.09	1.09	0.977	0.741
NCI-H2009	1.15	1.19	1.19	0.942	0.894	1.08	0.992	1.05	0.858	1.02	0.974	0.969	0.796	0.644	0.979	1.09	0.971	0.94	0.846

Cell Line	relative viability (Entinostat + Foretinib; first compound 0.02 µM)	relative viability (Entinostat + Foretinib; first compound 0.06325 µM)	relative viability (Entinostat + Foretinib; first compound 0.2 µM)	relative viability (Entinostat + Foretinib; first compound 0.6325 µM)	relative viability (Entinostat + Foretinib; first compound 2 µM)	relative viability (SGI-1776; 0.08 µM)	relative viability (SGI-1776; 0.8 µM)	relative viability (SGI-1776; 2.53 µM)	relative viability (SGI-1776; 8 µM)	relative viability (Entinostat; 0.02 µM)	relative viability (Entinostat; 0.06325 µM)	relative viability (Entinostat; 0.2 µM)	relative viability (Entinostat; 0.6325 µM)	relative viability (Entinostat; 2 µM)	relative viability ([1]; 0.02 µM)	relative viability ([1]; 0.06325 µM)	relative viability ([1]; 0.2 µM)	relative viability ([1]; 0.6325 µM)	relative viability ([1]; 2 µM)
HCC-827	0.954	0.962	0.83	0.737	0.355	1.08	1.09	1.13	0.968	1.01	0.986	0.954	0.657	0.535	1.03	1.07	1.07	1.1	0.941
NCI-H1623	0.862	0.84	0.766	0.512	0.375	0.977	0.967	0.951	0.897	1	0.937	0.918	0.625	0.462	1.07	0.943	0.895	0.924	0.853
NCI-H661	0.929	0.963	0.923	0.697	0.575	1.02	1.04	1.06	0.974	1	0.999	0.911	0.809	0.664	0.989	1.04	0.978	1	0.813
CAL-12T	1.17	1.14	1.27	1.07	1.01	1.06	1.14	0.913	0.996	1.04	1.05	1.2	0.982	0.691	0.937	1.05	0.972	1.02	0.788
PC-14	0.991	0.951	0.969	0.441	0.232	1.09	1.03	0.972	0.491	1.08	1.11	1.06	0.424	0.14	0.974	1.14	1.03	0.852	0.525
NCI-H23	1.05	1.09	1.01	0.445	0.43	0.921	1.01	1.06	0.887	1.06	1.27	1.15	0.9	0.395	0.937	0.843	0.869	0.854	0.654
SK-LU-1	0.865	0.847	0.836	0.589	0.447	1.23	1.09	1.03	0.839	1.01	1.08	1.02	0.698	0.57	1.11	1.12	1.03	1.01	0.554
NCI-H727	0.753	0.782	0.794	0.679	0.521	0.976	1.02	1.01	0.852	0.892	0.895	0.887	0.614	0.545	0.973	1.1	0.878	0.9	1.02
HCC-366	0.994	0.992	0.685	0.265	0.0997	0.957	1.02	0.989	1.02	1.03	1.09	0.943	0.515	0.154	1.03	1.07	1.05	1.04	0.738
SW 1573	0.966	0.927	0.877	0.917	0.7	1.06	0.965	0.959	0.754	0.998	1.11	1.09	1	0.874	0.954	1.09	1.03	0.918	0.611
A-427	1.2	1.16	1.06	1	0.811	1.08	1.08	0.975	0.84	1.1	1.12	0.978	0.878	0.619	0.971	0.994	0.909	0.857	0.704
SW 900	0.946	0.878	1.04	0.674	0.533	0.891	1.01	0.746	0.526	0.92	0.944	0.92	0.748	0.519	0.759	1.01	0.87	0.784	0.76
NCI-H441	1.08	1.05	0.805	0.377	0.298	0.913	1.12	1.15	0.817	1.01	1.18	0.882	0.35	0.218	1.1	1.14	1.08	0.888	0.443
ABC-1	1.05	1.19	0.906	0.805	0.545	1.02	0.916	0.835	0.897	1.01	1.05	1.15	0.808	0.398	1.09	0.879	0.83	1.1	0.927
LK-2	1.02	1.31	0.905	0.683	0.543	1.09	1.03	1.03	0.77	1.04	1.03	0.868	0.652	0.349	0.998	1.08	1.09	0.757	0.585
NCI-H2085	1.01	0.969	0.984	0.54	0.401	0.95	1.07	1.03	0.9	0.98	0.974	1	0.756	0.559	0.936	1.03	1.01	0.946	0.75
NCI-H647	1.23	1.12	0.826	0.465	0.23	0.988	1.09	0.839	0.544	1.05	1.04	0.897	0.462	0.165	0.862	1.02	0.905	0.867	0.546
